# According to patent US10568939B2, “Composition and method for improving sleep duration and quality” (Board of Supervisors of Louisiana State University and …, priority 2016, dated 2020):
# What was measured:
# Janus kinase 3 (Jak3) = assay: Inhibition of Janus kinase 3 (Jak3) expression in LPS-stimulated HT-29 cells; format: cell-based; conditions: HT-29 cells stimulated by LPS; EGCG 20, 35, 50 μM; CE from 3, 6, 10 g light roasted chicory; combinations E1C1, E2C2, E3C3; triplicates; FIG. 2
# Description: (§1) A series of in vitro tests were conducted, using levels of components that would be expected to approximate the concentrations that would be seen in vivo following oral consumption of 2 fluid ounces of the novel composition by a 70 kilogram individual.
# (§2) • a. Inhibition of Janus kinase 3 (Jak3) by EGCG, CE, or a mixture of EGCG and CE. Jak3 is expressed solely in immune cells. Jak3 expression is an upstream event for the activation of TNF-α and subsequent cytokines such as IL-6. HT-29 colon cancer cells in T-75 flasks were stimulated by LPS (control). HT-29 cells in T-75 flasks were also stimulated by LPS and treated with EGCG (Treatment 1=20 μM (E1), Treatment 2=35 μM (E2), or Treatment 3=50 μM (E3)), CE (extract from 3 g (C1), 6 g (C2), or 10 g (C3) of light roasted chicory), or combinations of the respective low, medium, and high concentrations of EGCG and CE (E1C1, E2C2, or E3C3). C1, C2, or C3 concentrations approximated the levels that would be expected following consumption of 2 fluid ounces of the novel composition by a 70 kilogram individual. […] The effects of the treatments on histamine activity were determined by the inhibition of COX-2 expression. […] The effective concentrations of TNF-α, IL-1β or IL-6 in supernatants were calculated using a standard curve developed using known standards of TNF-α, IL-1β or IL-6. […]
# COX-2 expression = assay: Anti-histamine activity: inhibition of COX-2 expression in histamine-treated HeLa cells; format: cell-based; conditions: 1 μmol/L histamine, 18 h, EGCG 20, 35, 50 μM, positive controls mepyramine maleate and JNJ-7777120, FIG. 3
# Description: as §1, §2
# TNF-α = molecular target: T1, TNF-α (Homo sapiens, UniProt P01375); assay: TNF-α level by ELISA, supernatants of LPS-treated HT-29 cell cultures; format: cell-based; conditions: HT-29 supernatants, EGCG 20, 35, 50 μM, FIG. 4
# T1 construct: TNF-alpha levels in HT-29 cell culture treated with LPS; endogenous in cells; host or cells: HT-29 (culture supernatant)
# T1 sequence (P01375 77-233 limits assumed): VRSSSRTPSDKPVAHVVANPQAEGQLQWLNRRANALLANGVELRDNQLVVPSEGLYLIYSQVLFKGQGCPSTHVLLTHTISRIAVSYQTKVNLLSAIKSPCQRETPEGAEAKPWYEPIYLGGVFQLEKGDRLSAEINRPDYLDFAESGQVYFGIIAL
# Description: as §1, §2
# IL-1β = molecular target: T2, IL-1β (Homo sapiens, UniProt P01584); assay: IL-1β level by ELISA, supernatants of LPS-treated HT-29 cell cultures; format: cell-based; conditions: HT-29 supernatants, EGCG 20, 35, 50 μM, FIG. 5
# T2 construct: IL-1β levels in HT-29 cell culture treated with LPS; endogenous in cells; host or cells: HT-29 (culture supernatant)
# T2 sequence (P01584 117-269): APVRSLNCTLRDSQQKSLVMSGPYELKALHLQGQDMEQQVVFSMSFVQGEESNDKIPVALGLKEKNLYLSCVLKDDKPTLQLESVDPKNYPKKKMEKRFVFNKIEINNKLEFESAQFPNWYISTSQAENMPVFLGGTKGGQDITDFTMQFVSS
# Description: as §1, §2
# IL-6 = molecular target: T3, IL-6 (Homo sapiens, UniProt P05231); assay: IL-6 level by ELISA, supernatants of LPS-treated HT-29 cell cultures; format: cell-based; conditions: HT-29 supernatants, EGCG 20, 35, 50 μM, FIG. 6
# T3 construct: IL-6 levels in HT-29 cell culture treated with LPS; endogenous in cells; host or cells: HT-29 (culture supernatant)
# T3 sequence (P05231 30-212): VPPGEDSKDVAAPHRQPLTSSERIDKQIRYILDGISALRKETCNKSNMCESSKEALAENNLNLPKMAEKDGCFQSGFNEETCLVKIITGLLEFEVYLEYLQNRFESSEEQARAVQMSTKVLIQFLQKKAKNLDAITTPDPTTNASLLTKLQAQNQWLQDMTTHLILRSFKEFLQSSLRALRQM
# Description: as §1, §2
# [1] = Effect of individual components alone versus the novel combination on sleep; format: in vivo, human; conditions: component alone or novel combination
SMILES,Jak3 expression (Janus kinase 3 (Jak3)),COX-2 expression (anti-histamine activity) (COX-2 expression),TNF-α activity/level (TNF-α),IL-1β activity/level (IL-1β),IL-6 activity/level (IL-6),Sleep after awakening in the middle of the night [1],"Sleep onset, depth, efficiency, duration [1]"
"O=C(O[C@@H]1Cc2c(O)cc(O)cc2O[C@@H]1c1cc(O)c(O)c(O)c1)c1cc(O)c(O)c(O)c1 [EGCG, Epigallocatechin gallate]",inhibited Jak3 expression in a dose-dependent manner,"inhibited COX-2 expression in a dose-dependent manner, although not as strongly as did the positive controls","inhibited the activity of each of TNF-α, IL-1β and IL-6 in a dose-dependent manner","inhibited the activity of each of TNF-α, IL-1β and IL-6 in a dose-dependent manner","inhibited the activity of each of TNF-α, IL-1β and IL-6 in a dose-dependent manner",does not improve sleep after awakening in the middle of the night,"does not enhance sleep onset, depth, efficiency, or duration"
CCNC(=O)CC[C@H](N)C(=O)O [Theanine],–,–,–,–,–,does not improve sleep after awakening in the middle of the night,"does not enhance sleep onset, depth, efficiency, or duration"
